Reference: patent US20120301551A1, “COMPOUNDS AND COMPOSITIONS FOR TREATING NEURONAL DEATH OR NEUROLOGICAL DYSFUNCTION” (Neurotech Pharmaceuticals Co., Ltd., priority 2005, published 2012)
pIC50: −log10 of the molar value.

Columns and labels:
beta-amyloid (Aβ42) = experiment: suppression of beta-amyloid (Aβ42) production in CHO cells (ELISA); type: cell-based, Chinese hamster; conditions: Cricetulus griseus; CHO cells stably transfected with human wild APP695 and PS1ΔExon9; culture medium, ELISA; read-out: Aβ42 lowering effect (IC50)
Description: The suppressing effects of many drug candidates on production of beta-amyloid were evaluated in CHO cell line having the increased level of beta-amyloid. Results were shown as IC50 (uM) (Item C of Table 3 below).
In the Table 3, A, B and C mean neuron protecting effect against Fe^+2, suppressing effect on production of NO and suppressing effect on production of beta-amyloid, respectively. The term “ND” means “Not determined.”
Cells were treated with increasing concentrations of various chemicals in Chinese hamster ovary (CHO) cells stably transfected with human wild APP695 and the PS1ΔExon9, and analyzed Aβ42 levels in culture medium by colorimetric sandwich ELISA kit (BIOSOURCE, Camarillo, Calif.). In CHO cells, IC50 of Chemical—01-08 on Aβ42 lowering effect was 20-100 uM (Table 4).

IL-1β = experiment: LPS-induced IL-1β production in BV2 cells; type: cell-based
Description: Suppressing effects of chemical 01 in BV2 cell lines on production of IL-1β, IL-6 or TNF-α were evaluated. BV2 cells were exposed to 1 ug/ml LPS (inflammation-inducing material) with inclusion of chemical 01 at indicated doses. After 4 hours, supernatant were collected and concentrations of TNF-a were evaluated. In addition, BV2 cells were treated by the same method, and 24 hours later, supernatant were collected and concentrations of IL-1β and IL-6 were evaluated (mean±SEM, n=3). BV2 cells treated with LPS only were used as control.

Tg2576 transgenic mice [1] = experiment: brain Aβ42/Aβ40 levels in Tg2576 transgenic mice (ELISA); type: in vivo, mouse; conditions: 25 mg/kg/d for 8 months (9~17 months)
Description: 17 month-old Tg2576 transgenic mice were fed chow alone, or containing 25 mg/kg/day of chemical 01, for 8 months before being sacrificed (9˜17 months). The level of Aβ42 or Aβ40 protein was quantitatively analyzed by colorimetric sandwich ELISA kit (BIOSOURCE, Camarillo, Calif.) (mean±SEM, n=2).
17 month-old Tg2576 transgenic mice were fed chow alone (saline only), or containing 25 mg/kg/day of chemical—01, for 8 months before being sacrificed (9˜17 month). SDS-soluble/insoluble Aβ42 or Aβ40 levels were analyzed by colorimetric sandwich ELISA kit (BIOSOURCE, Camarillo, Calif.).

Tg2576 transgenic mice [2] = experiment: elevated plus maze in Tg2576 transgenic mice; type: in vivo, mouse; conditions: 25 mg/kg/day for 5 months (9~14 months)
Description: 14 month-old Tg2576 transgenic mice were fed chow alone, or containing 25 mg/kg/day of chemical 01, for 5 months (9˜14 months). After administration of 5 months, Elevated plus maze test was performed to evaluate the behavior improvement. Elevated plus maze has two open arms (30 cm×6 cm×0.5 cm) and two closed arms (30 cm×6 cm×15 cm), and also has 6 cm×6 cm of center platform. In Elevated plus maze test, mouse was carefully laid in the center with the head of the mouse toward open arm. The time that the mouse spent in the open arm was recorded for 5 minutes (mean±SEM, n=2).
14 month-old Tg2576 transgenic mice were fed chow alone (saline only), or containing 25 mg/kg/day of chemical—01, for 5 months (9˜14 month).
The anxiety function was analyzed by elevated plus maze test. The time spent in the open arm was recorded in the elevated plus maze.

[3] = test system: APPswe/PS1deltaE9 double transgenic mice; experiment: amyloid plaque burden in APPswe/PS1deltaE9 double transgenic mice (Thioflavin-S); type: in vivo, mouse
Description: The treatment with 25 mg/kg/day of chemical 01 for 7 months (from 3.5 to 10.5 month-old APP/PS1) caused a significant 53% reduction in amyloid plaque burden compared to APP/PS1 dementia mouse fed with general chow only.
10.5 month-old APPswe/PS1deltaE9 double transgenic mice were fed chow alone (saline only), or containing 25 mg/kg/day of chemical—01, for 7.5 months before being sacrificed (3˜10.5 month). 18-20 μm brain sections stained 1% Thioflavin-S for 5 min and observed under fluorescence microscope system.

G93A mouse = experiment: microglia number and activation in G93A mouse (TOMATO Lectin); type: in vivo; conditions: 5 mg/kg/day or 20 mg/kg/day; lumbar ventral horn
Description: Number and activation degree of microglia (a marker of inflammation in brain disease animal model) expressed in the lumbar ventral horn of G93A mouse were evaluated with TOMATO Lectin dye. In G93A mouse, number of microglia was increased and microglia was more activated compared to the wild type mouse. Treatment with 5 mg/kg/day or 20 mg/kg/day of chemical 01 decreased the increase of number and activation degree of microglia (FIG. 13F).

G93A mice = experiment: inflammatory cytokine mRNA in lumbar segments of G93A mice (RT-PCR); type: in vivo, mouse; conditions: 16 week-old G93A mice, 5 mg/kg/day or 20 mg/kg/day in chow
Description: Lumbar segments of 16 week-old G93A mice fed with general chow only, and 16 week-old G93A mice fed with chow containing 5 mg/kg/day or 20 mg/kg/day of chemical 01 were extracted and their RNA were separated. The mRNA expression degrees of TNF-a and IL-16, cytokines inducing inflammation, were evaluated through RT-PCT.

[4] = test system: neuron-rich cortical cell cultures; experiment: serum deprivation-induced neuronal cell apoptosis; type: cell-based, mouse; conditions: 24 hr, 5 mM Li^+, 100 μM zVADfmk, 1 μM 2-hydroxy TTBA
Description: (B) Neuron-rich cortical cell cultures (DIV 7) were deprived of serum, alone or with addition of 100 μM zVADfmk, 1 μM 2-hydroxy TTBA, or 5 mM Li^+. Neuronal death was analyzed 24 hr later by counting viable neurons excluding trypan (mean±SEM, n=4). *, Significant difference from the relevant control (serum deprivation alone), p<0.05 using ANOVA and Student-Neuman-Keuls test. (C) Western blot analysis of FADD antibody following immunoprecipitation with Fas antibody in the same samples above.
Additional experiments were performed to examine if targeting both neuronal cell necrosis and apoptosis would result in synergic neuroprotection in […] transgenic mice. […] Neuronal cell apoptosis was induced by serum deprivation in neuron-rich cortical cell cultures as reported, which was prevented by addition of 5 mM Li^+ as well as zVADfmk, a broad spectrum inhibitor of caspases (FIG. 5B). […] Additional experiments were performed to examine if Li^+ would prevent Fas signaling pathway. […] This implies that 2-Hydroxy-TTBA and Li^+ blocks oxidative neuronal cell necrosis and apoptosis, respectively.

Compound | pIC50 (beta-amyloid (Aβ42)) | decrease of IL-1β released into media (IL-1β; 100 uM, 1 ug/ml LPS, 24 hours) | IL-1β decrease, in words (IL-1β; 1~100 uM) | SDS-soluble/insoluble Aβ42 and Aβ40 levels, in words (Tg2576 transgenic mice [1]) | SDS-soluble/insoluble Aβ42 and Aβ40 levels, in words (Tg2576 transgenic mice [1]; listed as chemical—01) | time spent in the open arm (Tg2576 transgenic mice [2]) | time spent in the open arm (Tg2576 transgenic mice [2]; listed as chemical—01) | reduction in amyloid plaque burden ([3]; 25 mg/kg/day for 7 months (from 3.5 to 10.5 month-old)) | reduction in plaque burden ([3]; 25 mg/kg/day for 7.5 months (3~10.5 month)) | reduction in amyloid plaque burden ([3]; 25 mg/kg/day, from 8.5 to 12.5 month-old (4 months)) | increase of number and activation degree of microglia (G93A mouse) | mRNA expression of TNF-a and IL-16, cytokines inducing inflammation (G93A mice) | serum deprivation-induced neuronal cell apoptosis, effect in words [4] | serum deprivation-induced neuronal cell apoptosis, effect in words ([4]; listed as 2-hydroxy TTBA)
O=C(O)c1cc(NCCc2ccc(C(F)(F)F)cc2)ccc1O [chemical 01, 2-Hydroxy-5-[2-(4-trifluoromethyl-phenyl)-ethylamino]-benzoic acid] | 4.71 | about 80% | dose-dependent manner | decreased | reduced | decreased the time | spent less time | 53% | 53.4% | 49.3% | decreased | effectively reduced | – | –
O=C(O)c1cc(NCc2c(F)c(F)c(C(F)(F)F)c(F)c2F)ccc1O [2-Hydroxy-TTBA, 2-hydroxy-5-(2,3,5,6-tetrafluoro-4-trifluoromethyl-benzylamino)-benzoic acid] | – | – | – | – | – | – | – | – | – | – | – | – | not attenuated | not
